We go through one compound from patent publication US8685936B2, “Sphingosine kinase inhibitor prodrugs” (Apogee Biotechnology Corporation, priority 2009, dated 2014).

“Also recorded” adds a separate entry of the source.

A short description of data set [1]: Conversion of Compound 2 to Compound 1 in living mice; plasma levels of Compound 1 by HPLC. Type of data set: in vivo. How it is done:
FIG. 4. Conversion of Compound 2 into Compound 1 in vivo. Balb/C female mice, 6-8 weeks old, were dosed with either Compound 1 (●) or Compound 2 (♦) at 50 mg/kg by intravenous injection. Mice were euthanized at the indicate times after injection, and blood was harvested by cardiac puncture and plasma was prepared. The plasma was then extracted and analyzed for Compound 1 levels by HPLC.
To extend the in vitro studies described above, the ability of Compound 2 to be converted to Compound 1 in an in vivo test system was determined. In these experiments, Compound 1 or Compound 2 was dissolved in PEG400 and administered to female Balb/C mice at a dose of 50 mg/kg by intravenous injection. Mice were sacrificed and blood was removed via cardiac puncture at 2 minutes, 15 minutes, 30 minutes or 60 minutes. The concentration of Compound 1 in the blood of the animals at each of the time points was determined using HPLC with UV detection as described in the previous Example. […] In the case of administration of Compound 2, plasma concentrations of Compound 1 rose during the first 30 minutes and then were decreased with a half-time of clearance of approximately 20 minutes.

Data set [2] has as its system esterases in mouse plasma. In words: Conversion of ester prodrugs to Compound 1 by mouse plasma (HPLC). Type of data set: in vitro ADME. How it is done: FIG. 2. Chromatogram of Compound 2. Purified Compound 2 was analyzed by high-performance liquid chromatography using a Waters 2795 system equipped with a photodiode array detector. Separations were conducted using a Nova-Pak C18 column (3.9×150 mm, Waters) eluted isocratically with a mobile phase that consisted of 65% Solvent A (methanol containing 0.1% formic acid) and 35% Solvent B (5% acetonitrile and 95% water containing 0.1% formic acid) at a flow rate of 0.6 mL/min. Compound 2 was detected by its absorbance at the wavelength of 265 nm.
FIG. 3. Conversion of Compound 2 to Compound 1 by plasma enzymes. Purified Compound 2 was incubated with mouse plasma for 5 minutes at room temperature. The sample was then extracted and analyzed by high-performance liquid chromatography as described for FIG. 2.
Prodrugs are compounds that are converted to a biologically active metabolite through the action of enzymes in the body. […] When Compound 2 was incubated with plasma isolated from mouse blood at room temperature for 5 minutes and then analyzed by a similar HPLC process, the peak corresponding to Compound 2 was reduced by more than 95%, and new compounds that eluted with retention times consistent with the monoester of Compound 1, i.e. one of the acetyl esters had been removed, and Compound 1 itself, i.e. both of the acetyl esters had been removed (FIG. 3). […]

The test system of data set [3] is DSS-colitis model. The data set is described as follows: Acute DSS-colitis model of inflammatory bowel disease. Type of data set: in vivo, C57BL/6 mice. Here is the method:
FIG. 7. Effects of Compound 1 and Compound 2 on the Disease Activity Index (DAI) in the acute DSS-colitis model. […] After 6 days, the DAI was calculated for each group. Values represent the mean±std. dev. for 5-6 mice per group. […] FIG. 8. Effects of Compound 1 and Compound 2 on colon length in the acute DSS-colitis model. […] After 6 days, the animals were sacrificed and the length of the colon was measured. Values represent the mean±std. dev. for 6-7 mice per group. In this model, colon length decreases as the disease progresses. […] FIG. 9. Effects of Compound 1 and Compound 2 on neutrophil infiltration into the colon in the acute DSS-colitis model. […] After 6 days, the animals were sacrificed and the colons were harvested. Myeloperoxidase activity (MPO) was measured and normalized by the protein concentration of the samples. Values represent the mean±std. dev. for 6-7 mice per group. In this model, MPO activity in the colon increases as a result of neutrophil infiltration into the colon as the disease progresses. […] FIG. 10. Effects of ester prodrugs on colon length in the acute DSS-colitis model. C57BL/6 mice were treated for 6 days as follows: 2% DSS in the drinking water and daily oral administration of Vehicle (described in FIG. 7); or 2% DSS in the drinking water and oral administration of 50 mg/kg the indicated ester prodrugs in Vehicle. After 6 days, the animals were sacrificed and the length of the colon was measured. Values represent the mean±std. dev. for 4-5 mice per group. In this model, colon length decreases as the disease progresses. […] FIG. 11. Effects of ester prodrugs on neutrophil infiltration into the colon in the acute DSS-colitis model. C57BL/6 mice were treated for 6 days as follows: 2% DSS in the drinking water and daily oral administration of Vehicle (described in FIG. 7); or 2% DSS in the drinking water and oral administration of 50 mg/kg the indicated ester prodrugs in Vehicle. After 6 days, the animals were sacrificed and the length of the colon was measured. Values represent the mean±std. dev. for 4-5 mice per group. In this model, MPO activity in the colon increases as a result of neutrophil infiltration into the colon as the disease progresses. […] In these experiments, male C57BL/6 mice were provided with standard rodent diet and water ad libitum. After their acclimation, the animals were randomly divided into groups of 5 or 6 for DSS (40,000 MW from ICN Biomedicals, Inc., Aurora, Ohio)- and drug-treatment. The Compounds were dissolved in a Vehicle consisting of 46.7% PEG 400, 46.7% of a solution of 0.375% Tween 80 in saline and 6.6% ethanol, and given once daily (starting on Day 0) by oral gavage in a volume of 0.1 mL per dose. The mice were given normal drinking water or 2% DSS (starting on Day 0) and treated orally with Compound 1 or Compound 2 at a dose of 50 mg/kg daily. The body weight of each animal was measured each day, and the Disease Activity Index (DAI) was scored for each animal on Day 6. On Day 6, the animals were sacrificed by cervical dislocation and the entire colon was removed and measured to the nearest 0.1 cm. The distal 3 cm of the colons were used for biochemical analyses of inflammation markers.

Consider `CC(=O)Oc1ccc(CCNC(=O)C23CC4CC(C2)CC(c2ccc(Cl)cc2)(C4)C3)cc1OC(C)=O` [Compound 2, Acetic acid 2-acetoxy-5-(2-{[3-(4-chlorophenyl)-adamantane-1-carbonyl]-amino}ethyl)phenyl ester], for which the “area-under-the-curve (AUC) for exposure to circulating Compound 1, compared with dosing Compound 1 itself” value in data set [1] (50 mg/kg intravenous, female Balb/C mice) is listed as “much greater”. For the same compound, the “half-time for clearance of Compound 1 from plasma” value in data set [1] (50 mg/kg of the named compound by intravenous injection in PEG400, female Balb/C mice, Compound 1 measured) is “approximately 20 minutes”. Moreover, the “reduction of the HPLC peak corresponding to Compound 2” value in data set [2] (incubated with mouse plasma at room temperature for 5 minutes) was “more than 95%”. In data set [2] (mouse plasma, room temperature, 5 minutes, HPLC), the “cleavage of the esters / conversion to Compound 1 by mouse plasma” value is “rapidly convert Compound 2 into Compound 1”. Besides, the “Disease Activity Index (DAI)” value in data set [3] (2% DSS in drinking water, 50 mg/kg daily oral, Day 6, C57BL/6 mice, 50 mg/kg) is given as “reduced the intensity of the IBD manifestations; also recorded: superior to Compound 1 in reducing the DAI”. The “colon myeloperoxidase (MPO) activity (neutrophil infiltration)” value in data set [3] (2% DSS, 50 mg/kg daily oral, Day 6, C57BL/6 mice (Example 16, FIG. 9), 50 mg/kg) is “markedly attenuated; also recorded: reduced to a greater extent”. Moreover, in data set [3] (2% DSS, 50 mg/kg oral, 6 days, C57BL/6 mice, 4-5 per group (Example 17, FIG. 10)), the “colon length (contraction of the colon), ester prodrugs” value is “effective in preventing the contraction of the colons”. Moreover, the colon length result in data set [3] (2% DSS, 50 mg/kg oral, Day 6, C57BL/6 mice (Example 16, FIG. 8), 50 mg/kg) was “colons of significantly longer length; also recorded: superior to the protective effect of Compound 1”.
